Experimental data reported in the OPERA property sets (Mansouri et al. 2018).

Conditions: not given

Compound	boiling point [°C]	melting point [°C]	log10 vapour pressure (mmHg)	ready biodegradability	log10 Koc (L/kg)	log10 Henry constant (atm·m³/mol)	log10 biodegradation half-life (days)
FC1(F)OC1(F)F	-63.5	-118	–	–	–	–	–
O[C@@H]1CCCC[C@H]1O	–	102	–	–	–	–	–
c1ccc(Nc2ccc(-c3ccc(Nc4ccccc4)cc3)cc2)cc1	–	247	–	–	–	–	–
C=CC(C)(C)CC	77.5	-134	2.02	–	–	–	–
O=C(Cl)c1cc(C(=O)Cl)cc(C(=O)Cl)c1	–	36.3	–	–	–	–	–
C=C(C)C(=O)OCCCCCCCCCCCCCCCCCC	–	–	–	readily biodegradable	–	–	–
CC#CCCCCC	138	-61.6	0.875	–	–	–	–
CCc1ccc(O)cc1O	–	98.5	–	–	–	–	–
c1ccc(CN2CCOCC2)cc1	260	194	–	–	–	–	–
CCC(=O)Oc1ccccc1	211	20	–	–	–	–	–
CC(C)(C)C(=O)C=Cc1ccccc1	–	43	–	–	–	–	–
c1ccc2nc(-c3ccc4ccccc4n3)ccc2c1	–	194	–	–	4.02	–	–
CC(C)CCCCCCC=O	197	–	–	–	–	–	–
CC(C)(C)[C@H](O)/C(=C\c1ccc(Cl)cc1)n1cncn1	–	153	–	–	–	–	–
CCN(CC)c1ccc(C=NN(c2ccccc2)c2ccccc2)cc1	–	94.5	–	–	–	–	–
CC(=O)Oc1ccccc1C	208	–	–	–	–	–	–
CC(=O)Nc1ccc(-c2ccc(N)cc2)cc1	–	–	–	not readily biodegradable	–	–	–
CN(C)C(=O)N[C@@H]1C[C@@H]2C[C@H]1[C@@H]1CCC[C@H]21	–	177	–	–	–	–	–
ClC(Cl)C(Cl)Cl	146	-43.8	0.665	not readily biodegradable	1.9	-3.44	–
CC(C)N=C=O	74.5	–	–	–	–	–	–

Compound	boiling point [°C]	melting point [°C]	log10 vapour pressure (mmHg)	ready biodegradability	log10 Koc (L/kg)	log10 Henry constant (atm·m³/mol)	log10 biodegradation half-life (days)
OC[C@@H]1CCCCN1	–	69	–	–	–	–	–
Cn1cnc2nc(N)[nH]c(=O)c21	–	370	–	–	–	–	–
O=S1OCC2C(CO1)C1(Cl)C(Cl)=C(Cl)C2(Cl)C1(Cl)Cl (stereo not given)	–	106	-6.17	–	4.11	-4.62	–
O=C(NC(=O)c1c(F)cccc1F)Nc1ccc(Cl)c(Oc2ncc(C(F)(F)F)cc2Cl)c1	–	–	-12	–	–	–	–
C=CC(=O)OCC(CC)(COC(=O)C=C)COC(=O)C=C	–	–	–	not readily biodegradable	–	–	–
CCC(=O)NC	148	-30.9	0.0603	–	–	–	–
CCCCCCCCCCCCCCCCCCCCCCCCCC	412	56.4	-6.33	readily biodegradable	–	–	2
CCCC[P+](CCCC)(CCCC)Cc1ccc(Cl)cc1Cl.[Cl-]	–	117	-6.15	–	–	–	–
ClC1CC2CCC1C2 (stereo not given)	162	-5	–	–	–	–	–
Oc1c(Cl)cccc1-c1ccccc1	–	6	–	–	–	–	–
CCCCCCCCSC#N	–	105	–	–	–	–	–
CC(C)NCC(O)COc1cccc2c1C=CC2 (stereo not given)	–	88.5	–	–	–	–	–
CCc1ccccc1-c1ccccc1CC	–	–	–	not readily biodegradable	–	–	–
Cc1c[nH]c(=O)[nH]c1=O	–	316	–	–	–	–	–
C#C[C@]1(O)C=C[C@H]2[C@@H]3CCC4=CC(=O)CC[C@@H]4[C@H]3CC[C@@]21CC	–	198	–	–	–	–	–
CCOC(=O)c1ccc(C)cc1	232	–	–	–	2.59	–	–
O=CN1CCCCC1	222	–	–	–	–	–	–
Cc1ccccc1NC(=N)NC(=N)N	–	144	–	–	–	–	–
CC1(O)CCCCC1	155	25	0.0531	–	–	–	–
CC=NNc1ccccc1	–	99.5	–	–	–	–	–

Compound	boiling point [°C]	melting point [°C]	log10 vapour pressure (mmHg)	ready biodegradability	log10 Koc (L/kg)	log10 Henry constant (atm·m³/mol)	log10 biodegradation half-life (days)
CC(=O)[C@@]1(O)CC[C@H]2[C@@H]3C[C@H](C)C4=CC(=O)C=C[C@]4(C)[C@@]3(F)[C@@H](O)C[C@@]21C	–	297	–	–	–	–	–
ClCCc1ccccc1	–	–	–	not readily biodegradable	–	–	–
O=C1CCCCCCCCC1O (stereo not given)	–	42	–	–	–	–	–
CC(C)(C)c1ccc(C(O)CCCN2CCC(C(O)(c3ccccc3)c3ccccc3)CC2)cc1 (stereo not given)	–	147	–	–	–	–	–
CC(C)(C)C(=O)OC(=O)C(C)(C)C	193	–	-0.356	–	–	–	–
Oc1ccc(N=Nc2ccc(N=Nc3ccccc3)c3ccccc23)cc1	–	210	–	–	–	–	–
C[C@]12CC[C@H](O)C[C@@H]1CC[C@@H]1[C@@H]2[C@@H](O)C[C@@]2(C)[C@H]1CC[C@]2(O)C(=O)CO	–	244	–	–	–	–	–
O=C(O)c1ccnc(C(=O)O)c1	–	249	–	readily biodegradable	–	–	–
NNC(=O)c1cccc(Br)c1	–	158	–	–	–	–	–
CC(=O)O[C@]1(C(C)=O)CC[C@H]2[C@@H]3C=C(C)C4=CC(=O)CC[C@]4(C)[C@H]3CC[C@@]21C	–	214	–	–	–	–	–
CCNc1nc(NCC)nc(SC)n1	–	–	–	–	2.3	–	–
Brc1cccc(I)c1	252	-9.3	–	–	–	–	–
Cc1cccc(NC=O)c1	290	–	–	–	–	–	–
CC(CN1c2ccccc2Sc2ccccc21)N(C)C.Cl (stereo not given)	–	228	–	–	–	–	–
Cc1ccc(NC(=O)c2ccccc2)cc1	–	158	–	–	–	–	–
COCCOCCO	193	–	-0.602	–	–	–	–
NN(c1ccccc1)c1ccccc1	–	50.5	-3.31	–	–	–	–
CCCCCC(=O)CCCCC	228	14.5	-1.3	readily biodegradable	–	–	–
O=C(CCCN1CCC(O)(c2ccc(Cl)cc2)CC1)c1ccc(F)cc1	–	152	–	–	–	–	–

Same assay, conditions: fish

Compound	log10 BCF	log10 biotransformation half-life (days)
Clc1c(Cl)c(Cl)c2c(Cl)c(Cl)c(Cl)c(Cl)c2c1Cl	2.58	1.62
O=[N+]([O-])c1cc(Cl)c(Cl)cc1Cl	1.84	-0.64
COP(=S)(OC)Oc1ccc(S(C)=O)c(C)c1 (stereo not given)	0.12	-0.38
O=[N+]([O-])c1c(Cl)c(Cl)c(Cl)c(Cl)c1Cl	2.74	-0.17
CCC(C)(NC(=O)c1cc(Cl)c(C)c(Cl)c1)C(=O)CCl (stereo not given)	–	0.16
ClC(Cl)C(Cl)Cl	1.11	-0.67
